Reference: US20130296311A1, “INHIBITORS OF HCV NS5A” (PRESIDIO PHARMACEUTICALS, INC., priority 2010, published 2013)
pEC50: −log10 of the molar value.

Each compound was assayed on HCV 1b_Huh-Luc/Neo-ET cell line persistently expressing a bicistronic genotype 1b replicon in Huh 7 cells (assay: HCV replicon assay (luciferase readout, 72 h)). Conditions: Hepatitis C virus, Huh-7, 72 h, read-out: Inhibition of HCV genotype 1b.
Format: cell-based, HCV genotype 1b
Method in brief: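 EC50 values come from a four-parameter fit of luciferase signal as % of untreated control, repeated across several determinations. The signal is from the HCV 1b_Huh-Luc/Neo-ET replicon line, dosed in triplicate one day post-plating and incubated 72 h before Bright-Glo readout.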

SMILES	pEC50
COC(=O)N[C@@H](C(=O)N1CCC[C@H]1c1ncc(-c2ccc(C#Cc3ccc(-c4cnc([C@@H]5CCCN5C(=O)[C@H](NC(=O)N5CCN(C)CC5)c5ccccc5)[nH]4)cc3)cc2)[nH]1)c1ccccc1 [Compound 240]	> 9.00
COC(=O)N[C@H](C(=O)N[C@@H](C)c1ncc(-c2ccc(C#Cc3ccc4nc([C@@H]5CCCN5C(=O)[C@@H](NC(=O)OC)C(C)C)[nH]c4c3)cc2)[nH]1)C(C)C [Compound 869]	> 9.00
COC(=O)N[C@H](C(=O)N1CCC[C@H]1c1ncc(-c2cccc3c(C#Cc4ccc5nc([C@@H]6CCCN6C(=O)[C@@H](NC(=O)OC)C(C)C)[nH]c5c4)cccc23)[nH]1)C(C)C [Compound 1112]	> 9.00
C[C@H](NC(=O)[C@@H]1CCCN1C(=O)[C@H](NC(=O)OC(C)(C)C)c1ccccc1)c1ccc(C#Cc2ccc(-c3cnc([C@@H]4CCCN4C(=O)[C@H](NC(=O)OC(C)(C)C)c4ccccc4)[nH]3)cc2)cc1 [Compound 169]	8.00 to 9.00
CS(=O)(=O)N[C@@H](C(=O)N1CCC[C@H]1c1ncc(-c2ccc(C#Cc3ccc(-c4cnc([C@@H]5CCCN5C(=O)[C@@H](c5ccccc5)N5CCOCC5)[nH]4)cc3)cc2)[nH]1)c1ccccc1 [Compound 232]	> 9.00
CN1CCN(C(=O)N[C@@H](C(=O)N2CCC[C@H]2c2ncc(-c3ccc(C#Cc4ccc(-c5cnc([C@@H]6CCCN6C(=O)[C@H](NC(=O)N6CCN(C)CC6)c6ccccc6)[nH]5)cc4)cc3)[nH]2)c2ccccc2)CC1 [Compound 159]	> 9.00
CC(=O)N[C@@H](C(=O)N1CCC[C@H]1c1ncc(C#Cc2ccc(C#Cc3cnc([C@@H]4CCCN4C(=O)[C@H](NC(C)=O)c4ccccc4)[nH]3)cc2)[nH]1)c1ccccc1 [Compound 306]	> 9.00
CN1CCN(C(=O)N[C@@H](C(=O)N2CCC[C@H]2c2ncc(C#Cc3ccc(-c4cnc([C@@H]5CCCN5C(=O)[C@H](NC(=O)N5CCN(C)CC5)c5ccccc5)[nH]4)cc3)[nH]2)c2ccccc2)CC1 [Compound 118]	6.00 to 8.00
COC(=O)N[C@H](C(=O)N1CCC[C@H]1c1ncc(-c2ccc(C#Cc3ccc4nc([C@@H]5CCCN5C(=O)[C@@H](NC(=O)OC)[C@H](C)O)[nH]c4c3)cc2)[nH]1)[C@H](C)O [Compound 1031]	> 9.00
C[C@H]1OC(=O)N(C)[C@@H]1C(=O)N1CCC[C@H]1c1ncc(-c2ccc(C#Cc3ccc(-c4cnc([C@@H]5CCCN5C(=O)[C@@H]5[C@@H](C)OC(=O)N5C)[nH]4)cc3)cc2)[nH]1 [Compound 980]	6.00 to 8.00
CC(C)[C@H](NC(=O)N1CC[C@H](O)C1)C(=O)N1CCC[C@H]1c1ncc(-c2ccc(C#Cc3ccc(-c4cnc([C@@H]5CCCN5C(=O)[C@@H](NC(=O)N5CC[C@H](O)C5)C(C)C)[nH]4)cc3)cc2)[nH]1 [Compound 988]	6.00 to 8.00
C[C@H](NC(=O)[C@@H]1CCCN1C(=O)[C@H](NC(=O)OC(C)(C)C)c1ccccc1)c1ccc(C#Cc2cnc([C@@H]3CCCN3C(=O)[C@H](NC(=O)OC(C)(C)C)c3ccccc3)[nH]2)cc1 [Compound 130]	6.00 to 8.00
COC(=O)N[C@H](C(=O)N1CCC[C@H]1c1nc2c([nH]1)-c1ccc(C#Cc3ccc(-c4cnc([C@@H]5CCCN5C(=O)[C@@H](NC(=O)OC)C5CCOCC5)[nH]4)cc3)cc1CC2)C(C)C [Compound 1091]	> 9.00
COC(=O)N[C@H](C(=O)N1CCC[C@H]1c1ncc(-c2ccc(C#Cc3ccc(-c4cnc([C@@H]5CCCN5C(=O)[C@@H](c5ccccc5)N5CCCCC5)[nH]4)cc3)cc2)[nH]1)C(C)C [Compound 986]	> 9.00
COC(=O)N[C@H](C(=O)N1CCC[C@H]1c1ncc(-c2ccc(C#Cc3ccc4nc([C@@H]5CCCN5C(=O)[C@@H](NC(=O)OC)C(C)C)[nH]c4c3)cc2)[nH]1)C(C)C [Compound 802]	> 9.00
CC[C@@H](C(=O)N1CCC[C@H]1c1ncc(-c2ccc(C#Cc3ccc(-c4cnc([C@@H]5CCCN5C(=O)[C@H](NC(=O)OC)c5ccccc5)[nH]4)cc3)cc2)[nH]1)c1ccccc1 [Compound 258]	> 9.00
COC(=O)N[C@H](C(=O)N1CCC[C@H]1c1nc2c([nH]1)-c1ccc(C#Cc3ccc4nc([C@@H]5CCCN5C(=O)[C@@H](NC(=O)OC)C(C)C)[nH]c4c3)cc1CC2)C(C)C [Compound 1101]	> 9.00

SMILES	pEC50
COC(=O)N[C@@H](C(=O)N1CCC[C@H]1c1ncc(-c2ccc(C#Cc3ccc(-c4cnc([C@@H]5CCCN5C(=O)[C@H](NC(=O)N5CC[C@H](F)C5)c5ccccc5)[nH]4)cc3)cc2)[nH]1)c1ccccc1 [Compound 270]	> 9.00
COC(=O)N[C@H](C(=O)N1CCC[C@H]1c1ncc(-c2ccc(C#Cc3ccc4nc([C@@H]5CCCN5C(=O)[C@H](NC(=O)OC)c5ccccc5)[nH]c4c3)cc2)[nH]1)C(C)C [Compound 1023]	> 9.00
COC(=O)N[C@@H](C(=O)N1CCC[C@H]1c1ncc(-c2ccc(C#Cc3ccc(-c4cnc([C@@H]5CCCN5C(=O)[C@H](NC(=O)C5(O)CC5)c5ccccc5)[nH]4)cc3)cc2)[nH]1)c1ccccc1 [Compound 277]	> 9.00
C=CC[C@H](NC(=O)OC)C(=O)N1CCC[C@H]1c1nc2ccc(C#Cc3ccc4c(c3)CCc3nc([C@@H]5CCCN5C(=O)[C@@H](NC(=O)OC)C(C)C)[nH]c3-4)cc2[nH]1 [Compound 1105]	> 9.00
COC(=O)N[C@H](C(=O)N1CCC[C@H]1c1ncc(-c2ccc(C#Cc3ccc4c(ccc5nc([C@@H]6CCCN6C(=O)[C@@H](NC(=O)OC)C(C)C)[nH]c54)c3)cc2)[nH]1)C(C)C [Compound 1095]	> 9.00
CC(C)[C@@H](NC(=O)C1CC1)C(=O)N1CCC[C@H]1c1ncc(C#Cc2ccc(C#Cc3cnc([C@@H]4CCCN4C(=O)[C@H](NC(=O)C4CC4)C(C)C)[nH]3)cc2)[nH]1 [Compound 302]	< 6.00
COC(=O)N[C@H](C(=O)N1CCC[C@H]1c1ncc(-c2ccc(C#Cc3ccc(-c4cnc([C@@H]5CCCN5C(=O)[C@@H](c5ccccc5)N5CCOCC5)[nH]4)cc3)cc2)[nH]1)C(C)C [Compound 987]	> 9.00
CN1CCN(C(=O)N[C@@H](C(=O)N2CCC[C@H]2c2ncc(C#Cc3ccc(C#Cc4cnc([C@@H]5CCCN5C(=O)[C@H](NC(=O)N5CCN(C)CC5)c5ccccc5)[nH]4)cc3)[nH]2)c2ccccc2)CC1 [Compound 310]	8.00 to 9.00
COC(=O)N[C@H](C(=O)N1CCC[C@H]1c1nc2ccc(-c3ccc(C#Cc4cnc([C@@H]5CCCN5C(=O)[C@H](NC(=O)OC)c5ccccc5)[nH]4)cc3)cc2[nH]1)C(C)C [Compound 1085]	> 9.00
COC(=O)N[C@H](C(=O)N1CCC[C@H]1c1ncc(C#Cc2ccc(-c3cnc([C@@H]4CCCN4C(=O)[C@@H](NC(=O)OC)C(C)C)[nH]3)cc2)[nH]1)C(C)C [Compound 134]	> 9.00
COC(=O)N[C@@H](C(=O)N(C)[C@@H](C)c1ncc(-c2ccc(C#Cc3ccc(-c4cnc([C@@H]5CCCN5C(=O)[C@H](NC(=O)OC)c5ccccc5)[nH]4)cc3)cc2)[nH]1)c1ccccc1 [Compound 274]	> 9.00
O=C(N[C@@H](C(=O)N1CCC[C@H]1c1cc(-c2ccc(C#Cc3ccc(-c4cnc([C@@H]5CCCN5C(=O)[C@H](NC(=O)[C@@H]5CCCO5)c5ccccc5)[nH]4)cc3)cc2)n[nH]1)c1ccccc1)[C@@H]1CCCO1 [Compound 214]	> 9.00
COC(=O)N[C@H](C(=O)N1CCC[C@H]1c1ncc(-c2ccc3cc(C#Cc4ccc5nc([C@@H]6CCCN6C(=O)[C@@H](NC(=O)OC)C(C)C)[nH]c5c4)ccc3c2)[nH]1)C(C)C [Compound 1111]	> 9.00
O=C(N[C@@H](C(=O)N1CCC[C@H]1c1nc(-c2ccc3cc(C#Cc4cnc([C@@H]5CCCN5C(=O)[C@H](NC(=O)N5CC[C@H](O)C5)c5ccccc5)[nH]4)ccc3c2)c[nH]1)c1ccccc1)N1CC[C@H](O)C1 [Compound 806]	8.00 to 9.00
O=C(N[C@@H](C(=O)N1CCC[C@H]1c1ncc(-c2ccc(C#Cc3ccc(-c4cnc([C@@H]5CCCN5C(=O)[C@@H](c5ccccc5)N5CCCCC5)[nH]4)cc3)cc2)[nH]1)c1ccccc1)N1CCOCC1 [Compound 209]	> 9.00
COC(=O)N[C@H](C(=O)N1CCSC[C@H]1c1ncc(-c2ccc(C#Cc3ccc4nc([C@@H]5CCCN5C(=O)[C@@H](NC(=O)OC)C(C)C)[nH]c4c3)cc2)[nH]1)C(C)C [Compound 1062]	> 9.00
CCN(CC)[C@@H](C(=O)N1CCC[C@H]1c1ncc(-c2ccc(C#Cc3ccc(-c4cnc([C@@H]5CCCN5C(=O)[C@@H](NC(=O)OC)C(C)C)[nH]4)cc3)cc2)[nH]1)c1ccccc1 [Compound 985]	> 9.00

Same assay, conditions: Hepatitis C virus, Huh-7, read-out: Inhibition of HCV genotype 1b

SMILES	pEC50
C=CC[C@H](NC(=O)OC)C(=O)N1CCC[C@H]1c1nc2ccc(C#Cc3ccc4c(c3)CCCc3nc([C@@H]5CCCN5C(=O)[C@@H](NC(=O)OC)C(C)C)[nH]c3-4)cc2[nH]1 [Compound 1283]	> 9.00
COC(=O)N[C@@H](C(=O)N[C@@H](C)c1ncc(-c2ccc(C#Cc3ccc4nc([C@@H]5CCCN5C(=O)[C@H](NC(=O)OC)c5ccccc5)[nH]c4c3)cc2)[nH]1)c1ccccc1 [Compound 1226]	> 9.00
CC[C@H](NC(=O)OC)C(=O)N1CCC[C@H]1c1ncc(-c2ccc(C#Cc3ccc4nc([C@@H]5CCCN5C(=O)[C@@H](NC(=O)OC)[C@@H](C)OC)[nH]c4c3)cc2)[nH]1 [Compound 1247]	> 9.00
COC(=O)N[C@H](C(=O)N1CCC[C@H]1c1ncc(-c2ccc(C#Cc3ccc(-c4cnc([C@@H]5CCCN5C(=O)[C@H](NC(=O)OC)c5ccccc5)[nH]4)cc3)cc2)[nH]1)[C@@H](C)OC [Compound 1210]	> 9.00
COC(=O)N[C@H](C(=O)N1CCC[C@H]1c1nc2ccc3cc(C#Cc4ccc5nc([C@@H]6CCCN6C(=O)[C@H](NC(=O)OC)c6ccccc6)[nH]c5c4)ccc3c2[nH]1)C(C)C [Compound 1275]	> 9.00
CC[C@H](C)[C@H](NC(=O)OC)C(=O)N1CCC[C@H]1c1ncc(-c2ccc3cc(C#Cc4[nH]c([C@@H]5CCCN5C(=O)[C@@H](NC(=O)OC)[C@@H](C)OC)nc4C(F)(F)F)ccc3c2)[nH]1 [Compound 1259]	> 9.00
COC(=O)N[C@H](C(=O)N[C@@H](C)c1ncc(-c2ccc(C#Cc3ccc4nc([C@@H]5CCCN5C(=O)[C@@H](NC(=O)OC)C(C)C)[nH]c4c3)cc2)[nH]1)C(C)C [Compound 1225]	> 9.00
